Conditions: Liquid; for mass density: 100 kPa, Vibrating tube method; for viscosity: 101.33 kPa, Concentric cylinders viscometry

CC(C)(CO)[C@@H](O)C(=O)NCCCO [d-Panthenol]
Conditions	mass density [kg/m3]	viscosity [mPa·s]
293.15 K	1165.18	527287
298.15 K	1161.68	261544
303.15 K	1158.27	125673
308.15 K	1154.96	68487
313.15 K	1151.46	37252

Reference: the NIST ThermoML archive (doi:10.1016/j.jct.2017.10.014)
